What all share (assay type): functional, Homo sapiens
Common to all, as to conditions: Homo sapiens, read-out: Cell Viability; for viability at 10 µM: Concentration 10 uM; for viability at 1 µM: Concentration 1 uM

The test system of experiment [1] is Colon cancer organoid. The experiment is described as follows: Targeting of F14 CAF-induced therapy resistance in O14 CRC organoid-stroma co-culture. Cell viability is reported without Gefitinib.
In experiment [2] the test system is Colon cancer organoid. The experiment is described as follows: Targeting of F14 CAF-induced therapy resistance in O14 CRC organoid-stroma co-culture. Cell viability is reported with Gefitinib.
The subject of experiment [3] is Colon cancer organoid. The experiment is described as follows: Targeting of F14 CAF-induced therapy resistance in O23 CRC organoid-stroma co-culture. Cell viability is reported without Gefitinib.
Experiment [4] relates to Colon cancer organoid. The experiment is described as follows: Targeting of F14 CAF-induced therapy resistance in O23 CRC organoid-stroma co-culture. Cell viability is reported with Gefitinib.
For experiment [5], the system named is Colon cancer organoid. Put plainly: Targeting of F14 CAF-induced therapy resistance in O23 CRC organoid-stroma co-culture. Cell viability is reported with SN-38.

Square brackets hold non-standard residues; d marks the D form. Peptide text beside a SMILES is read from it. Arg(Me) = CNC(=N)NCCC[C@H](N)C(=O)O; d4Pal = N[C@H](Cc1ccncc1)C(=O)O; azaGly = NNC(=O)O

In general, viability refers to a read-out of living cells in per cent, often relative to untreated cells. Take `O=C1[C@H](Cc2ccc(O)cc2)N2C(=O)CCN(C(=O)NCc3ccccc3)[C@H]2CN1Cc1cccc2ccccc12`: the viability at 10 µM in experiment [1] was determined as 37.1%; in experiment [2], 22%; in experiment [3], 125%; in experiment [4], 85.3%; in experiment [5] it was 103%.

For `COc1ccccc1S(=O)(=O)Nc1ccc2c(c1)CN(C)C(=O)N2`, the viability at 10 µM in experiment [1] is 101%; in experiment [2] it was 57.5%; in experiment [3], 105%; in experiment [4], 53.9%; in experiment [5], 73.2%.

Take `O=C([C@@H](Cc1cccc(C(F)(F)F)c1)NS(=O)(=O)c1cc(F)c2c(c1)CCNC2)N1CCCC1`: the viability at 10 µM in experiment [1] was found to be 114%; in experiment [2], 65%; in experiment [3], 81.5%; in experiment [4] it was 55.1%; in experiment [5] it was 60.3%.

As for `CC(=O)Nc1ncc(CN2CCC[C@H](Cc3cc(C)nc(C)c3)C2)s1` [JNJ-65355394], the viability at 10 µM came to 106% in experiment [1]; 47.9% in experiment [2]; 103% in experiment [3]; 88.8% in experiment [4]; 44.3% in experiment [5].

As for `CNC(=N)NCCC[C@H](NC(=O)[C@H](CC(C)C)NC(=O)NNC(=O)[C@H](Cc1ccccc1)NC(=O)[C@H](CO)NC(=O)[C@H](CC(N)=O)NC(=O)[C@@H](Cc1ccncc1)NC(=O)[C@H](N)Cc1ccc(O)cc1)C(=O)N[C@@H](Cc1ccccc1)C(N)=O` [KISS1-305] (H-[dY][d4Pal]NSF[azaGly]L[Arg(Me)]F-NH2), the viability at 10 µM was 119% in experiment [1]; 52.8% in experiment [2]; 97.6% in experiment [3]; 66.9% in experiment [4]; 61.3% in experiment [5].

For the compound `Cc1c(Oc2ccc(F)cc2)c(OC(C)C)nn1-c1ccc(C2CC2)cn1` [IPP/CNRS-A019], the viability at 10 µM is 84.4% in experiment [1]; 50.2% in experiment [2]; 147% in experiment [3]; 86.4% in experiment [4]; 75.2% in experiment [5].

Turning to `CC[C@H](CC(=O)O)n1c(=O)c2ncccc2n(Cc2cn(C)c3cc(C)cc(C)c23)c1=O` [BI-1942], the viability at 10 µM in experiment [1] came out at 93.3%; in experiment [2], 37.9%; in experiment [3], 113%; in experiment [4] it was 60.8%; in experiment [5], 65%.

Consider `CN(c1ccnc(CNc2nc(Nc3ccc4c(c3)CC(=O)N4)ncc2C(F)(F)F)n1)S(C)(=O)=O` [PF-00911705], for which the viability at 1 µM was found to be 87% in experiment [1]; 48% in experiment [2]; 87.4% in experiment [3]; 34.6% in experiment [4]; 73.5% in experiment [5].

With `CC(C)(O)c1cncc(-c2nc3ccc(F)cc3n2C2CC2)c1` [MSD-CYP11B2], the viability at 10 µM in experiment [1] turned out to be 107%; in experiment [2] it was 39%; in experiment [3], 144%; in experiment [4], 79.5%; in experiment [5], 94.9%.

Consider `CCOCCn1cc(C(=O)Nc2ccc(-n3nc(-c4cccnc4)cc3C(F)(F)F)cn2)ccc1=O` [BI 1935], for which the viability at 10 µM in experiment [1] came to 82.6%; in experiment [2], 40.1%; in experiment [3] it was 98.5%; in experiment [4] it was 70.8%; in experiment [5] it was 64.4%.

In the case of `Cc1cnc(-c2cc(Cl)ccc2F)cc1-n1c(=O)n(CC(N)=O)c2cnccc21` [TP-008], the viability at 10 µM in experiment [1] came out at 114%; in experiment [2] it was 43.1%; in experiment [3], 147%; in experiment [4] it was 43.8%; in experiment [5], 94%.

With `CN(C)C(=O)Cn1cc(-c2nc([C@@](C)(c3ccc(-c4cnc(N)nc4)cc3)C3CC3)no2)cn1` [BI 665915], the viability at 1 µM amounted to 102% in experiment [1]; 56.8% in experiment [2]; 181% in experiment [3]; 79.9% in experiment [4]; 85.2% in experiment [5].

For the compound `CN1CCN(c2cnc3c(C4CCN(C(=O)c5ccc(OC(F)(F)F)cc5N)CC4)ncnc3c2)CC1` [BAY-885], the viability at 10 µM was determined as 114% in experiment [1]; 21.7% in experiment [2]; 115% in experiment [3]; 59.7% in experiment [4]; 78% in experiment [5].

As for `CCCOc1ccc([C@H]2[C@H](C(=O)O)[C@@H](c3ccc4c(c3)OCO4)CN2CC(=O)Nc2c(CC)cccc2CC)cc1` [A-192621], the viability at 1 µM in experiment [1] stood at 117%; in experiment [2], 27.4%; in experiment [3], 112%; in experiment [4], 48.1%; in experiment [5], 50%.

On to `CCc1ccccc1C(=O)Nc1n[nH]c2c(C)c(F)c(C3C(C#N)=C(C)N(C)C(C)=C3C#N)cc12` [BAY-3827], for which the viability at 10 µM worked out at 101% in experiment [1]; 24.2% in experiment [2]; 47.4% in experiment [3]; 30.6% in experiment [4]; 14.5% in experiment [5].

For `CN(C(=O)c1cnn2cccnc12)c1cc2c(cc1N1CCOCC1)C(=O)N(C[C@@H](F)C(C)(C)O)C2`, the viability at 10 µM in experiment [1] was determined as 139%; in experiment [2] it was 38.6%; in experiment [3], 92.3%; in experiment [4], 39.2%; in experiment [5] it was 61.8%.

In the case of `COCCc1ccc(-c2c(C)nc3c(N4CCOCC4)ccnn23)cn1` [JNJ-42396302], the viability at 10 µM in experiment [1] was 122%; in experiment [2], 65.9%; in experiment [3], 143%; in experiment [4], 97%; in experiment [5] it was 70.4%.

Turning to `CC1=C(C)C(=O)C(C(C)(C)CC(=O)N(CCCCSC[C@H]2O[C@@H](n3cnc4c(N)ncnc43)[C@H](O)[C@@H]2O)Cc2cccc(-c3ccc(Cl)cc3)c2)=C(C)C1=O`, the viability at 10 µM was 89.1% in experiment [1]; 59.5% in experiment [2]; 92.3% in experiment [3]; 57.2% in experiment [4]; 69.9% in experiment [5].

With `COc1nc2ccc([C@@](O)(c3ccccc3)C3CCN(C(C)=O)CC3)cc2c(Cl)c1Cc1ccc(-n2cccn2)cc1` [JNJ-54119936], the viability at 10 µM in experiment [1] amounted to 146%; in experiment [2] it was 45.8%; in experiment [3] it was 106%; in experiment [4], 64.3%; in experiment [5] it was 62.6%.

On to `Nc1ncnc2c1ccn2[C@@H]1O[C@H]([C@H](O)c2ccccc2)[C@@H](O)[C@H]1O`, for which the viability at 10 µM in experiment [1] was determined as 14.9%; in experiment [2], 14.9%; in experiment [3], 97.6%; in experiment [4], 45%; in experiment [5], 68.9%.

On to `O=C(NNS(=O)(=O)c1ccccc1)c1cc(-c2ccnnc2)ccc1F` [WM-2474], for which the viability at 10 µM in experiment [1] amounted to 77.4%; in experiment [2] it was 30.5%; in experiment [3] it was 75.6%; in experiment [4], 61.3%; in experiment [5] it was 54.2%.

With `CCNC(=O)c1cc2c(N3CCOCC3C)ccnc2[nH]1` (stereo not given), the viability at 10 µM is 130% in experiment [1]; 55.4% in experiment [2]; 156% in experiment [3]; 56.4% in experiment [4]; 97.3% in experiment [5].

Take `CCCCN(CCCC)C(=O)CN1C[C@@H](c2cc(OC)c3c(c2)OCO3)[C@H](C(=O)O)[C@H]1CC(C)(C)CCC` [A-545]: the viability at 10 µM in experiment [1] stood at 83.6%; in experiment [2] it was 61.5%; in experiment [3], 142%; in experiment [4], 47%; in experiment [5], 88.5%.

Take `O=C(NCCCN1CCOC1=O)c1cnc(NCc2cc(Br)ccc2Br)nc1NC1CCCC1`: the viability at 10 µM in experiment [1] worked out at 126%; in experiment [2] it was 51.8%; in experiment [3], 118%; in experiment [4], 55.2%; in experiment [5], 61.8%.

As to `Cc1c(NC(=O)c2ccc(C(C)(C)C)cc2)cccc1-c1cn(C)c(=O)c(Nc2ccc(C(=O)N3CCOCC3)cc2)n1`, the viability at 10 µM was found to be 82.5% in experiment [1]; 23.8% in experiment [2]; 56.1% in experiment [3]; 54% in experiment [4]; 56.9% in experiment [5].

Turning to `COc1cc(N[C@@H]2CCCC[C@]2(O)C(F)(F)F)ccc1F` [BAY-9897], the viability at 1 µM in experiment [1] was found to be 86.4%; in experiment [2], 40.2%; in experiment [3] it was 81.6%; in experiment [4], 66.7%; in experiment [5], 78.5%.

On to `N#CC1(c2ccccn2)CCN(Cc2cc(C(=O)O)c(=O)n3ccccc23)CC1` [MSD-M1PAM], for which the viability at 10 µM in experiment [1] is 84.9%; in experiment [2], 37%; in experiment [3], 118%; in experiment [4], 64.3%; in experiment [5], 71.9%.

`C[C@@H](c1cccc(CN)c1)n1cc(Cl)cc(C(N)=O)c1=N`: the viability at 10 µM in experiment [1] turned out to be 106%; in experiment [2], 33.4%; in experiment [3], 172%; in experiment [4] it was 51%; in experiment [5] it was 99.7%.

Regarding `CC1=CC(C)=[N+]2C1=C(CCCCc1cn(CC(=O)N3CCc4nc(NC(=O)[C@H]5CCN(C#N)C5)sc4C3)nn1)c1c(C)cc(C)n1[B-]2(F)F`, the viability at 10 µM in experiment [1] turned out to be 115%; in experiment [2] it was 31.6%; in experiment [3], 101%; in experiment [4], 36.4%; in experiment [5], 52.6%.

(Values after ChEMBL document CHEMBL5608113, “Targeting of CAF-induced therapy resistance in CRC organoid-stroma co-cultures” (2024).)
